Data from US9649333B2, “Oxygenation procedures for newborns and devices for use therein” (UTI Limited Partnership, priority 2008, dated 2017).
Read-outs that look alike come from different tables or passages of the source.

Test system: preterm infants
Details: for time immediately after birth to reach the target range: FIG. 3
Text: Blinded, randomized control trial of delivery room resuscitation in infants 32 weeks gestation comparing three O2 strategies. The High O2 Burden (HOB) group received a static concentration of 100% O2. In the Moderate O2 Burden (MOB) and Low O2 Burden (LOB) groups, resuscitation started with 100% and 21% O2, respectively. The inspired oxygen concentration was adjusted by 20% every 15 seconds in the MOB and LOB groups until the target SpO2 range of 85% to 92% was reached. SpO2 measurements were recorded every 2 seconds from the right wrist (pre-ductal) and the maximum sensitivity setting of the pulse oximetry was used. An anesthesia monitor continuously measured and recorded respiratory parameters including the peak inspiratory pressure, respiratory rate, end-tidal CO2 and inspired O2 concentration.
There were three sets of preterm infants that were part of this study. The LOB (low oxygen burden group—resuscitation began with room air given followed by a 20% increase every 15 sec as long as the oxygen saturation was less than 85%), MOB ([…] began with 100% oxygen given and decreased 20% every 15 sec as long as the oxygen saturation was greater than 92%) and HOB (high oxygen burden group—100% oxygen given continuously). The inventors enrolled 106 preterm infants (≦32 weeks gestation) (LOB=34, MOB=[…]).

[1] = HOB group: static 100% O2, target SpO2 85-92%
[2] = LOB group: start 21% O2, titrated
[3] = LOB group: start 21% O2, titrated, target SpO2 85-92%
[4] = MOB group: start 100% O2, titrated
[5] = MOB group: start 100% O2, titrated, target SpO2 85-92%

With `O=O` [oxygen] the “Mean duration of resuscitation” value (HOB group: static 100% O2) was 590.62 s, the “mean proportion of resuscitation time spent in the target SpO2 range (85-92%)” value (“mean proportion … (85-92%)” for short) (HOB group: static 100% O2) was 11% and the “Mean proportion of time above target” value [1] was 0.49. The “Mean proportion of time below target” value [1] was 0.40, the “proportion of time above range” value [1] was 49% and the “time immediately after birth to reach the target range” value (HOB group, target SpO2 85-92%) was “approximately 5 minutes”. The “Mean proportion of time in target” value (High O2 Burden (HOB) group: static 100% O2, target SpO2 85-92%) was 0.11, the “Mean duration of resuscitation” value [2] was 677.00 s and the “mean proportion … (85-92%)” value [2] was 16%. The “Mean proportion of time above target” value [3] was 0.23, the “Mean proportion of time below target” value [3] was 0.61 and the “proportion of time below range” value [3] was 61%. For the same compound, the “Mean proportion of time in target” value (Low O2 Burden (LOB) group: start 21% O2, adjusted by 20% every 15 seconds, target SpO2 85-92%) was 0.16, the “more time in target range than the LOB group” value (MOB group versus LOB group, target SpO2 85-92%) was “approximately 25%” and the “Mean duration of resuscitation” value [4] was 665.00 s. For the same compound, the “mean proportion … (85-92%)” value [4] was 21%, the “Mean proportion of time above target” value [5] was 0.28 and the “Mean proportion of time below target” value [5] was 0.51. The “time immediately after birth to reach the target range” value (MOB group, target SpO2 85-92%) was “approximately 5 minutes” and the “Mean proportion of time in target” value (Moderate O2 Burden (MOB) group: start 100% O2, adjusted by 20% every 15 seconds, target SpO2 85-92%) was 0.21.
